“And” between values parts separate entries of the source, which are not always exact repeats. Identical values can stand only once.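 Cultured in 96-well plates, cells were exposed to test compound for 48 hours across five concentrations. At the GI50, growth is halved. TGI: total growth inhibition.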 *1 amine or outer side, *2 acyl side, *3 side chain or, on linkers, in order; H or OH if unused. Where a SMILES comes first, the peptide text is derived from it. [ ]: non-standard residue; d: D form. The star is where a group is joined. ξ: configuration not given here. X15 = CCN(CC)c1ccc2cc(N*)c(=O)oc2c1; dIva = CC[C@@](C)(N)C(=O)O; X14 = O=C(OCCN[*:1])[*:2]; Aib = CC(C)(N)C(=O)O; ξP = O=C(O)C1CCCN1; βAla = NCCC(=O)O
How the values were obtained:
Test in all cases: NCI-60 cell line screen, 48 h
BT-549 breast = tested on: BT-549 breast
CAKI-1 renal = tested on: CAKI-1 renal
MOLT-4 leukemia = tested on: MOLT-4 leukemia
TK-10 renal = tested on: TK-10 renal
SK-MEL-28 melanoma = tested on: SK-MEL-28 melanoma
UACC-62 melanoma = tested on: UACC-62 melanoma
EKVX NSCLC = tested on: EKVX NSCLC
NCI-H226 lung = tested on: NCI-H226 lung
SF-268 CNS = tested on: SF-268 CNS
NCI/ADR-RES ovarian = tested on: NCI/ADR-RES ovarian

Row | SMILES | GI50 (BT-549 breast) [µM] | TGI (BT-549 breast) | GI50 (CAKI-1 renal) | TGI (CAKI-1 renal) | GI50 (MOLT-4 leukemia) [µM] | TGI (MOLT-4 leukemia) | GI50 (TK-10 renal) [µM] | TGI (TK-10 renal) | GI50 (SK-MEL-28 melanoma) | TGI (SK-MEL-28 melanoma) | GI50 (UACC-62 melanoma) [µM] | TGI (UACC-62 melanoma) | GI50 (EKVX NSCLC) [µM] | TGI (EKVX NSCLC) | GI50 (NCI-H226 lung) [µM] | TGI (NCI-H226 lung) | GI50 (SF-268 CNS) | TGI (SF-268 CNS) [µM] | GI50 (NCI/ADR-RES ovarian) [µM] | TGI (NCI/ADR-RES ovarian) [µM]
1 | CCN1C(=O)N(CC)C2C1NN=c1s/c(=C\c3cc4ccccc4[nH]3)c(=O)n12 (stereo not given) | 0.0178 | 16 µM | < 0.0169 µM | 11.6 µM | < 0.018 | > 100 µM | 2.11 | 32.3 µM | 2.77 µM | > 83 µM | < 0.0111 | 7.83 µM | 0.0453 | > 100 µM | 0.186 | 61.6 µM | < 0.0229 µM | 20.4 | 0.0213 | 2.3
2 | COc1ccc(/C=C2\CCC(CN(C)C)C2=O)cc1OC (stereo not given) |  | 14.3 µM |  | 10 µM |  | 7.35 µM |  | 18.7 µM |  | 13.8 µM |  | 12.7 µM |  | 34.1 µM |  | 28.2 µM |  | 27.1 |  | 7.19
3 | CCN(CC)c1ccc2cc(NC(=O)OCCNC(=O)CCNC(=O)[C@H](CC(C)C)NC(=O)C(C)(C)NC(=O)C(C)(C)NC(=O)[C@H](CC(C)C)NC(=O)CCNC(=O)C(C)(C)NC(=O)[C@H](CC(C)C)NC(=O)CCNC(=O)[C@@](C)(CC)NC(=O)[C@H](C)NC(=O)CCNC(=O)C(C)(C)NC(=O)[C@H](C)NC(=O)[C@@H]3CCCN3C(=O)[C@@](C)(CC)NC(=O)[C@H](Cc3ccccc3)NC(=O)C3CCCN3C(=O)C(C)(C)NC(=O)C3CCCN3C(=O)C(C)(C)NC(C)=O)c(=O)oc2c1 (stereo not given in full) (Ac-[Aib][ξP][Aib][ξP]F[dIva]PA[Aib][βAla]A[dIva][βAla]L[Aib][βAla]L[Aib][Aib]L[βAla][X14]-X15) | 0.00367 | 0.022 µM | 0.156 µM | 0.304 µM | 0.00399 | 0.0184 µM | 0.0142 | 0.079 µM | 0.00783 µM | 0.0325 µM | 0.00385 | 0.0189 µM | 0.00421 | 0.0241 µM | 0.00561 | 0.0348 µM | 0.00435 µM | 0.0187 | 0.176 | 0.378
4 | Nc1nc(N)c(N=O)c(OCC2CCCCC2)n1 | 4.8 | 61 µM and > 84.9 µM | 3.99 µM | 34 µM and 78.9 µM | 7.65 | > 100 µM and 51 µM | 15.9 | 57 µM and 34.5 µM | 13.2 µM | > 100 µM and 76.5 µM |  | 42.6 µM and 40.7 µM | 27 | > 94.5 µM and 64.2 µM | 6.65 | > 100 µM and 46.5 µM | 5.82 µM | > 95.4 |  | > 100
5 | COc1cc2c3c(n(C)c(=O)c2cc1OC)-c1cc2c(cc1/C3=C\C(N)CN)OCO2 (stereo not given) | 0.72 | 4.52 µM | 2.27 µM | 10.4 µM | 0.125 | > 40.7 µM | 1.45 | 26.5 µM | 4.45 µM | 41.8 µM | 0.707 | 3.66 µM | 2.1 | 9.95 µM | 1.89 | > 22.4 µM | 0.692 µM | 15 | > 74.8 | > 100
6 | OCC1OC(n2cnc3c(=S)nc[nH]c32)C(O)C1O (stereo not given) | 62.7 | > 2500 µM | 6.94 µM | > 2500 µM | 2.58 | > 2500 µM | 4.37 | > 2500 µM | > 62.5 µM | > 2500 µM | 3.56 | 1910 µM and > 100 µM | > 100 | > 2500 µM | > 31.1 | > 2500 µM | > 23.9 µM | > 2500 | 3.52 | > 2500
7 | CC12CC(OC(=O)[C@]1(C)O)[C@@H]([C@]1(O)CC[C@H]3[C@@H]4C[C@H]5O[C@]56[C@@H](O)C=CC(=O)[C@]6(C)[C@H]4CC[C@@]31C)C2 (stereo not given in full) |  | 9.57 µM |  | 24.9 µM |  | 10.1 µM |  | 20.2 µM |  | 30.2 µM |  | 37.2 µM |  | 9.94 µM |  | > 100 µM |  | 30.2 |  | 68.5
8 | c1ccc(P(CCP(CCP(c2ccccc2)c2ccccc2)c2ccccc2)CCP(c2ccccc2)c2ccccc2)cc1 (stereo not given) |  | > 10 µM | > 10 µM and 3 µM | > 10 µM |  | 5.85 µM |  | > 10 µM | > 10 µM and 2.01 µM | > 10 µM |  | > 10 µM | > 10 | > 10 µM |  | > 10 µM | > 10 µM and 3.71 µM | > 10 |  | > 10
9 | CC(C)C[C@H](NC(=O)[C@@H](O)[C@H](N)Cc1ccc([N+](=O)[O-])cc1)C(=O)O | > 25 | > 25 µM | > 25 µM | > 25 µM |  |  | > 25 | > 25 µM | > 25 µM | > 25 µM | > 25 | > 25 µM | > 25 | > 25 µM | > 25 | > 25 µM | > 25 µM | > 25 | > 25 | > 25
